# Assay results: patent US10349662B2, “Insecticidal compositions and methods of using the same” (priority 2011, dated 2019)
# Where “and” joins values, the source holds several entries; their conditions need not be identical. Equal values may be shown once. Read-outs that look alike come from different tables or passages of the source.
# Assays:
# [1] = cited from earlier work
# Aedes aegypti mosquitoes = test: Topical bioassay on adult female Aedes aegypti mosquitoes (knockdown 1 h, mortality 24 h; Colby calculation for combinations); format: in vivo
# Source text: Components of a composition can have a synergistic or additive effect on insecticidal activity. Components have an additive effect when the effect of the combination is equal to the sum of the effects of each individual component. In contrast, components have a synergistic effect when the effect of the combination exceeds the sum of the effects of the components when applied individually. The effect (E) of a combination of two compounds may be calculated using the Colby formula (1) (S. R. Colby, “Calculating Synergistic and Antagonistic Responses of Herbicide Combinations”, Weeds 1967, 15, 20-22):
# If the actual insecticidal kill rate is the calculated value (E), then the action of the combination is additive. If the actual insecticidal kill rate exceeds the calculated value (E), then the action of the combination is super-additive, that is, a synergistic effect is present. If the insecticidal kill rate is lower than the calculated value (E), then the action of the combination is considered antagonistic.
# Adult female Aedes aegypti mosquitoes were segregated in 18″×18″ screen cages based on date of eclosion, therefore the exact age of the mosquitoes were known for bioassays.
# Ten female mosquitoes, aged four to six days after eclosion, were aspirated out of their respective cage and into a small glass jar. The mosquitoes were then anesthetized with CO2 gas for 30 seconds. After the adults were anesthetized, they were quickly placed on a plastic platform for treatment application. Treatments were serially diluted (using a BrandTech Scientific Transferpette S pipette (100-1000 μL), labeled centrifuge tubes, and a vortex mixer) from stocks of insecticides using reagent grade acetone as the diluent to concentrations as indicated for each treatment solution. A treatment solution may contain additional ingredients as indicated for each study.
# Using a Hamilton PB00-1 Repeating Dispenser with a Hamilton 25 Microliter Syringe, 0.5 μL of each treatment solution was applied to the thorax of each mosquito. Immediately following the application of the treatment, the mosquitoes were gently transferred into a clean paper cup and covered with screen. The mesh screen prevented the mosquitoes from escaping and allowed the specimens to be viewed for ratings. A cotton ball soaked with 10% sucrose solution was inserted into a side hole of each cup for hydration and nourishment. Each treatment variable in the study was replicated three times using separate cups for each replication.
# The untreated controls treatments were anesthetized for 30 seconds and gently transferred to the paper cups. The acetone treated control was treated exactly as described above except that the solution applied to each mosquito was undiluted acetone.
# The condition of the mosquitoes in each cup was recorded at one hour and 24 hours after initial treatment. The condition classifications used were (1) alive and flying, (2) alive and unable to fly, or (3) dead. The percent mortality for each treatment was calculated by summing the mortalities of each replicate then calculating the percent dead from the total number of mosquitoes.
# Where indicated, the mortality data were subjected to probit analysis using the Statistical Analysis System Version 9.1 program PROC PROBIT (SAS Institute (2003) PROC user's manual, version 9.1. SAS Institute, Cary, N.C.).
# [2] = tested on: Culex quinquefasciatus mosquitoes; test: Topical bioassay on adult female Culex quinquefasciatus mosquitoes (knockdown 1 h, mortality 24 h; Colby calculation for combinations); format: in vivo; conditions: 0.008 μg/mosquito
# Cytochrome P450 enzyme = test: P450 activity assay (7-ethoxycoumarin, fluorescence); format: biochemical, A. aegypti; conditions: added to the assay; FIG. 2
# Experimental: Cytochrome P450 enzyme solution was prepared by homogenizing 15, 3 to 5 day old, A. aegypti females and centrifuging the mixture at 10,000 g for 1 minute. The pellet was discarded, and the supernatant was used as the P450 enzyme stock solution. 10 μL of this P450 enzyme stock and 90 μL of 7-ethoxycoumarin solution (0.526 mM of 7-ethoxycoumarin, 1.11 mM NADPH, 0.05 mM phosphate buffer) was added to each well of the micropipette plate to begin the reaction. During the reaction, the micropipette plate was covered with aluminum foil to prevent photo-bleaching. The reaction was incubated at 30° C. for 4 hours. The reaction was stopped by adding 30 μL of stop solution (0.1 mM glycine, pH 10.4, 50% ethanol). The micropipette plate was then analyzed by measuring the fluorescence (Emission=460 nm, Excitation=360 nm) of each well. High fluorescence was directly related to product, and thus indicated a high level of P450 activity.
smiles,measurement,setting,value
C=C1CC[C@@H]2[C@H]([C@H]3[C@H]1CC[C@]3(C)O)C2(C)C [Spathulenol],Vapor Pressure (@ 25° C.),[1],1.2 × 10^−4 mmHg
same,Solubility (in water @ 25° C.),[1],12.4 µg/mL
CC(C)=CCC[C@]1(C)[C@H]2CC=C(C)[C@@H]1C2 (relative stereo) [Bergamotene Trans Alpha],Vapor Pressure (@ 25° C.),[1],0.028 mmHg
same,Solubility (in water @ 25° C.),[1],0.030 µg/mL
C=C1CC[C@H]2O[C@]2(C)CC[C@@H]2[C@@H]1CC2(C)C [Caryophyllene Oxide-Beta],Vapor Pressure (@ 25° C.),[1],0.01 mmHg
same,Solubility (in water @ 25° C.),[1],2.21 µg/mL
C=C/C(C)=C/C/C=C(\C)CCC=C(C)C [Farnesene Alpha],Vapor Pressure (@ 25° C.),[1],0.025 mmHg
same,Solubility (in water @ 25° C.),[1],0.011 µg/mL
C=C1CC/C=C(\C)CC[C@@H]2[C@@H]1CC2(C)C [β-Caryophyllene],Vapor Pressure (@ 25° C.),[1],0.031 mmHg
same,Solubility (in water @ 25° C.),[1],0.05 µg/mL
same,1 hour knockdown,Aedes aegypti mosquitoes; 1%,0%
same,% MORTALITY AFTER 24 HRS,Aedes aegypti mosquitoes; 1%,0%
same,% MORTALITY AFTER 24 HRS,Aedes aegypti mosquitoes; 3%,0%
same,% MORTALITY AFTER 24 HRS,"Aedes aegypti mosquitoes; 3%, listed as β-CARYOPHYLLENE",77%
same,1 hour knockdown,Aedes aegypti mosquitoes; 5%,10%
same,% MORTALITY AFTER 24 HRS,Aedes aegypti mosquitoes; 5%,17%
same,1 hour knockdown,Aedes aegypti mosquitoes; 10%,57%
same,% MORTALITY AFTER 24 HRS,Aedes aegypti mosquitoes; 10%,40%
same,1 hour knockdown,Aedes aegypti mosquitoes; 20%,93%
same,% MORTALITY AFTER 24 HRS,Aedes aegypti mosquitoes; 20%,83%
same,% MORTALITY AFTER 24 HRS,"Aedes aegypti mosquitoes; single active, 3%",7% and 10%
C=C(C)[C@H]1CC=C(C)CC1 [D-limonene],Vapor Pressure (@ 25° C.),[1],1.541 mmHg
C=C(C)C1CC=C(CO)CC1 (racemic) [Pennyl Alcohol (racemic)],Vapor Pressure (@ 25° C.),[1],0.00478 mmHg
same,Solubility (in water @ 25° C.),[1],471 µg/mL
CC1=CCC2CC1C2(C)C (stereo not drawn) [Pinene Alpha],Vapor Pressure (@ 25° C.),[1],4.75 mmHg
"CCOc1ccc(C(C)(C)COCc2cccc(Oc3ccccc3)c2)cc1 [Etofenprox, etofenprox, reference compound]",1 hour knockdown,Aedes aegypti mosquitoes; 0.001 μg/mosquito,73%
same,1 hour knockdown,Aedes aegypti mosquitoes; 0.002 μg/mosquito,83%
same,mortality at 0.0005 µg/mosquito,"Aedes aegypti mosquitoes; Aedes aegypti, topical, 24 h, read-out: % MORTALITY AFTER 24 HRS, 0.0005 μg/mosquito",97%
same,mortality at 0.001 µg/mosquito,"Aedes aegypti mosquitoes; Aedes aegypti, topical, 24 h, read-out: % MORTALITY AFTER 24 HRS, 0.001 μg/mosquito",40%
same,mortality at 0.002 µg/mosquito,"Aedes aegypti mosquitoes; Aedes aegypti, topical, 24 h, read-out: % MORTALITY AFTER 24 HRS, 0.002 μg/mosquito",53%
same,mortality at 1 ng,"Aedes aegypti mosquitoes; Aedes aegypti, topical, 24 h, read-out: % MORTALITY AFTER 24 HRS, single active, 0.001 μg",40%
same,mortality at 2 ng,"Aedes aegypti mosquitoes; Aedes aegypti, topical, 24 h, read-out: % MORTALITY AFTER 24 HRS, single active, 0.002 μg",37%
C=CC(C)(O)CCC=C(C)C (centres unmarked) [Linalool],Vapor Pressure (@ 25° C.),[1],0.16 mmHg
same,Viscosity (@ 25° C.),[1],4.4 mPa
"CC1=CCCCC1 [1-Methyl-1-cyclohexene, 1-methyl-1-cyclohexene]",mortality at 3 %,"Aedes aegypti mosquitoes; Aedes aegypti, topical, 24 h, read-out: % MORTALITY AFTER 24 HRS, active ingredient alone, 3%, adult, virgin, female Aedes aegypti",40%
"CN/C(=N/CC1CCOC1)N[N+](=O)[O-] (centres unmarked) [Dinotefuran, dinotefuran, reference compound]",1 hour knockdown,Aedes aegypti mosquitoes; 0.004 μg/mosquito,0%
same,% MORTALITY AFTER 24 HRS,Aedes aegypti mosquitoes; 0.004 μg/mosquito,0%
same,1 hour knockdown,Aedes aegypti mosquitoes; 0.006 μg/mosquito,0% and 3%
same,mortality at 0.004 µg/mosquito,"Aedes aegypti mosquitoes; Aedes aegypti, topical, 24 h, read-out: % MORTALITY AFTER 24 HRS, 0.004 μg/mosquito",0%
same,LD50,"Aedes aegypti mosquitoes; topical application, adult Aedes aegypti",0.06 μg/mosquito
same,1 hour knockdown,[2],10%
same,% MORTALITY AFTER 24 HRS,[2],77% and 73%
C=C1CCC2CC1C2(C)C (stereo not drawn) [Pinene Beta],Vapor Pressure (@ 25° C.),[1],2.93 mmHg
C=C(C)[C@H]1CC=C(C)C(=O)C1 [(S)-(−)-Carvone],% MORTALITY AFTER 24 HRS,Aedes aegypti mosquitoes; 3%,20%
"CN1COCN(Cc2cnc(Cl)s2)/C1=N\[N+](=O)[O-] [Thiamethoxam, thiamethoxam, reference compound]",mortality at 2.5 ng,"Aedes aegypti mosquitoes; Aedes aegypti, topical, 24 h, read-out: % MORTALITY AFTER 24 HRS, 0.0025 μg",3%
same,mortality at 7.5 ng,"Aedes aegypti mosquitoes; Aedes aegypti, topical, 24 h, read-out: % MORTALITY AFTER 24 HRS, single active, 0.0075 μg",23%
same,mortality at 10 ng,"Aedes aegypti mosquitoes; Aedes aegypti, topical, 24 h, read-out: % MORTALITY AFTER 24 HRS, single active, 0.01 μg",7%
"O=[N+]([O-])NC1=NCCN1Cc1ccc(Cl)nc1 [Imidacloprid, imidacloprid, reference compound]",mortality at 5 ng,"Aedes aegypti mosquitoes; Aedes aegypti, topical, 24 h, read-out: % MORTALITY AFTER 24 HRS, 0.005 μg",60%
same,mortality at 2.5 ng,"Aedes aegypti mosquitoes; Aedes aegypti, topical, 24 h, read-out: % MORTALITY AFTER 24 HRS, single active, 0.0025 μg",83%
same,mortality at 3 ng,"Aedes aegypti mosquitoes; Aedes aegypti, topical, 24 h, read-out: % MORTALITY AFTER 24 HRS, single active, 0.003 μg",23%
same,mortality at 5 ng,"Aedes aegypti mosquitoes; Aedes aegypti, topical, 24 h, read-out: % MORTALITY AFTER 24 HRS, single active, 0.005 μg",30%
"CCCCOCCOCCOCc1cc2c(cc1CCC)OCO2 [PBO, piperonyl butoxide, reference compound]",inhibition of P450 activity,Cytochrome P450 enzyme,acted as inhibitors
C=C1/C=C/[C@H](C(C)C)CC/C(C)=C/CC1 [Germacrene D],Vapor Pressure (@ 25° C.),[1],0.023 mmHg
same,Solubility (in water @ 25° C.),[1],0.013 µg/mL
"CC1(C)C(C=C(Cl)Cl)C1C(=O)OCc1cccc(Oc2ccccc2)c1 (centres unmarked) [Permethrin, permethrin, reference compound]",1 hour knockdown,Aedes aegypti mosquitoes; 0.0004 μg/mosquito,93%
same,mortality at 300 pg,"Aedes aegypti mosquitoes; Aedes aegypti, topical, 24 h, read-out: % MORTALITY AFTER 24 HRS, 0.0003 μg",27%
same,mortality at 0.0004 µg/mosquito,"Aedes aegypti mosquitoes; Aedes aegypti, topical, 24 h, read-out: % MORTALITY AFTER 24 HRS, 0.0004 μg/mosquito",70%
same,mortality at 300 pg,"Aedes aegypti mosquitoes; Aedes aegypti, topical, 24 h, read-out: % MORTALITY AFTER 24 HRS, single active, 0.0003 μg",37%
same,mortality at 400 pg,"Aedes aegypti mosquitoes; Aedes aegypti, topical, 24 h, read-out: % MORTALITY AFTER 24 HRS, single active, 0.0004 μg",47%
C=CC(C)=CCC=C(C)CCC=C(C)C [Farnesene],1 hour knockdown,Aedes aegypti mosquitoes; 1%,0%
same,% MORTALITY AFTER 24 HRS,Aedes aegypti mosquitoes; 1%,3%
same,1 hour knockdown,Aedes aegypti mosquitoes; 3%,3% and 0% and 7%
same,% MORTALITY AFTER 24 HRS,Aedes aegypti mosquitoes; 3%,3%
same,1 hour knockdown,Aedes aegypti mosquitoes; 5%,0%
same,% MORTALITY AFTER 24 HRS,Aedes aegypti mosquitoes; 5%,13%
same,1 hour knockdown,Aedes aegypti mosquitoes; 10%,87%
same,% MORTALITY AFTER 24 HRS,Aedes aegypti mosquitoes; 10%,70%
same,1 hour knockdown,Aedes aegypti mosquitoes; 20%,100%
same,% MORTALITY AFTER 24 HRS,Aedes aegypti mosquitoes; 20%,100%
same,% MORTALITY AFTER 24 HRS,"Aedes aegypti mosquitoes; single active, 3%",7%
C=C(C)[C@@H]1CC=C(CO)CC1 [(S)-(−)-Perillyl alcohol],% MORTALITY AFTER 24 HRS,Aedes aegypti mosquitoes; 1%,0%
same,% MORTALITY AFTER 24 HRS,"Aedes aegypti mosquitoes; 2%, listed as (S)-(−)-perillyl alcohol",70%
same,% MORTALITY AFTER 24 HRS,"Aedes aegypti mosquitoes; 2%, listed as (S)-Perillyl alcohol",33%
same,% MORTALITY AFTER 24 HRS,"Aedes aegypti mosquitoes; single active, 2%",80% and 67%
